US10251860B2, “Compounds for bone healing” (University of Pittsburgh—Of the Commonwealth System of …, priority 2015, dated 2019)
“Also recorded” adds a separate entry of the source.

Columns and labels:
[1] = system: C57BL/6NTac mice, 20 Gy thoracic irradiation; assay: Radiation pulmonary fibrosis after 20 Gy thoracic irradiation; type: in vivo, mouse; conditions: MMS350 in drinking water
Source text: For lung irradiation, mice were irradiated to the thoracic cavity with shielding of the head and neck region and abdomen and lower body according to published methods. Animals received 20 Gy single fraction thoracic irradiation and were then maintained according to IACUC directed laboratory conditions. Mice were sacrificed at serial time points after thoracic irradiation including pre-irradiation, days 2, 7, 14, 28, 50, 75, 100, 110, 150 and 200 post-irradiation. Lungs were removed and sagittal sections assayed for percent of lung replaced by fibroblasts and organizing alveolitis according to published methods. Representative lung lobes from the same animals were tested by RT-PCR for level of detectable message for inflammatory cytokines, redox sensitive promoters, and levels of MnSOD.
Lungs from irradiated and luc+ cell line injected mice were removed and serial sectioned. Sections were stained for luc+, GFP+ cells, BrdU incorporation, and for quantitation of percent lung replaced by fibrosis (organizing alveolitis) according to published methods.
Mice were injected intra-peritoneally with MMS350 or JP4-039 (GS-nitroxide) in 50% cremphor/50% ethanol according to published methods. For long-term administration of MMS350, the drug was administered in water bottles with bottles changed every 7 days. The dose of drug per bottle was 100 μM MMS350 starting on day 88. The estimated total amount consumed by each animal daily was 10.9 μg based on a mouse drinking 5 ml of water per day. Chimeric mice irradiated to the thoracic cavity were placed 30 days later on MMS350 in water containing 100 mM MMS350. On day 88 after thoracic irradiation of non-chimeric mice, mice were placed on […] MMS350 in drinking water.

[2] = system: C57BL/6NTac female mice, tibia holes; assay: Bone wound healing in drilled mouse tibias (high resolution CT); type: in vivo; conditions: day 21
Experimental: Eighteen C57BL/6NTac female mice were divided into 2 groups of 9 mice. The first group was placed on water containing 400 μM MMS350. One week later the MMS350 mice were injected IP with 20 mg/kg MMS350 in water 15 minutes before irradiation. The control mice and the MMS350 treated mice were anesthetized with Nembutal and the right hind leg was irradiated to 20 Gy with the remainder of the mouse shielded from the irradiation. Twenty-four hours later holes were drilled into the tibias of all the mice. The MMS350 treated mice were kept on the MMS350 with the water changed weekly. Twenty-one days later the mice were sacrificed and both tibias removed, and fixed. The tibias were imaged using a high resolution CT. The holes in the tibias were measured and the volume of the holes determined.

[3] = Compound storage in 25% w/w solutions of 3 and NMP; type: physicochemical; conditions: 25% w/w 3 in NMP, −20° C.
Experimental: Because sulfoxide 3 is a solid, it would have to be mixed with an appropriate water-soluble cosolvent to act as a compound storage additive. NMP was chosen for exploring this potential application due to its thermal stability and low toxicity. […] The compound test set (FIG. 2) was stored in 25% w/w solutions of 3 and NMP for 6 weeks at −20° C.

[4] = system: 320 cl 3 murine hematopoietic cells; assay: Apoptotic markers after 5 Gy irradiation in vitro; type: cell-based; conditions: 24 hours after irradiation
Source text: Caspase-3 cleavage and Parpl cleavage illustrated the effects on apoptosis. […] Materials and Methods: Overall Design of Studies (Table 7).

[5] = system: bone marrow stromal cell line derived from C57BL/6NTac mice; assay: In vitro clonogenic radiation survival curves; type: cell-based, mouse; conditions: 0 to 8 Gy
Experimental: FIG. 12A is a graph of surviving fraction versus radiation dose, illustrating the in vitro radioprotection and mitigation of bone marrow stromal cells. In vitro survival curves were performed using a bone marrow stromal cell line derived from C57BL/6NTac mice. Cells were incubated in 100 μM MMS350 for one hour before irradiation or was added to the cells 10 min after irradiation. Cells were irradiated to doses ranging from 0 to 8 Gy, plated in 4 well tissue culture plates, incubated for 7 days at 37° C. in a humidified CO2 incubator, and stained with crystal violet. Colonies of greater than 50 cells were counted and analyzed using a linear quadratic model or single-hit, multi-target model.
The murine C57BL/6 bone marrow stromal cell line (Epperly M W, Sikora C A, Defilippi S, Gretton J E, Greenberger J S. Bone marrow origin of myofibroblasts in irradiation pulmonary fibrosis. Am J Resp Molecular Cell Biology 2003; 29:213-224) and its use in clonogenic radiation survival curves has been described (Epperly M W, Gretton J E, Bernarding M, Nie S, Rasul B, Greenberger J S. Mitochondrial localization of copper/zinc superoxide dismutase (Cu/ZnSOD) confers radioprotective functions in vitro and in vivo. Radiation Research 2003; 160:568-578).
Cell lines were irradiated at dose rate of 70 cGy per minute using a Cesium Gamma Cell Irradiator according to published methods. […]

[6] = system: 32D cl 3 cells; assay: Irradiated 32D cl 3 cells, cell count and viability; type: cell-based, murine; conditions: 10 μM, 0-7 Gy, day 3 or 5 after irradiation
Experimental: FIGS. 10A-10D provide data from a screening experiment where 32D cl 3 cells were irradiated to doses of 0, 1, 3, 5, or 7 Gy and placed in T25 flasks. Either JP4-039 or MM350 were added at 10 μM and incubated in a CO2 incubator at 37° C. At Day 3 or 5 after irradiation, the cells were counted and the viability determined.

Compound: CC1(C[S+]([O-])CC2(C)COC2)COC1 [Compound 3, 3,3′-Sulfinylbis(methylene)bis(3-methyloxetane)]
- survival ([1]; 20 Gy thoracic irradiated mice): significantly increased survival
- pulmonary fibrosis ([1]; 20 Gy thoracic irradiation): decreased radiation pulmonary fibrosis; also recorded: significant decrease in pulmonary fibrosis
- Percent Pulmonary Fibrosis ([1]; thoracic-irradiated mice, −MMS350 20.8 ± 3.9, p < 0.0001): 3.6 ± 1.1%
- diameter of tibia hole ([2]; 0 Gy tibia vs control 0 Gy, 400 μM in water plus 20 mg/kg IP): significantly smaller
- volume of tibia hole ([2]; 0 Gy+ MMS350 vs control 20 Gy irradiated tibia): significantly smaller
- diameter of tibia hole ([2]; 20 Gy irradiated tibia vs control 20 Gy): significantly smaller
- volume of tibia hole ([2]; 20 Gy+ MMS350 vs control 20 Gy irradiated tibia): significantly smaller
- precipitation on storage [3]: partly precipitated from the solution
- 1C3-1/11 conversion (autophagy) ([4]; 5 Gy): no difference
- H2AX phosphorylation (DNA strand break repair) ([4]; 5 Gy): more prominent with MMS-350 than JP4-038
- mitochondrial markers of apoptosis ([4]; one-hour before or 30-minutes after 5 Gy): reduced mitochondrial markers of apoptosis
- D0 ([5]; 100 μM MMS350 added 10 min after irradiation, control 1.9±0.1, p=0.0444): 2.4±0.3
- shoulder on the survival curve (ñ) ([5]; 100 μM MMS350 for one hour before irradiation, control 5.8±1.1, p=0.0039): 14.9±2.9
- number of cells and viability [6]: comparable to JP4-039
